Reference: patent US20110041725A1, “ANTICOAGULANTS AS ANTIFOULING AGENTS” (priority 2007, published 2011)
Entries after “also recorded” stand apart in the source; their conditions may differ.

Experiments:
[1] = tested on: barnacle cement polymerization; test: Barnacle cement polymerization in presence of anticoagulants, protein profile by SDS-PAGE; type: biochemical; details: for inhibition of polymerization of barnacle cement (number and intensity of proteins): 2 μl anticoagulant added to 1 μl unpolymerized cement of thick, gummy phenotype barnacle, 2 minutes, versus distilled water
Description: (§1) FIG. 6. Protein profile for barnacle cement polymerized in the presence of distilled water (control) or one of 5 anticoagulants heparin, warfarin, trypsin inhibitor, EGTA or EDTA. Each peak represents an individual protein. For each treatment, 2 μl of either distilled water or anticoagulant was added to 1 μl unpolymerized cement taken from a thick, gummy phenotype barnacle. Polymerization was allowed to proceed for 2 minutes. Samples were analyzed with SDS-PAGE using a 4-20% acrylamide gel. The gel was stained with Coomassie Blue and analyzed using Scion Image.
as §1, with “Each” for “FIG. 6. Protein profile for barnacle cement polymerized in the presence of distilled water (control) or one of 5 anticoagulants heparin, warfarin, trypsin inhibitor, EGTA or EDTA. Each”

barnacles = test: Barnacle reattachment assay (removal force); type: in vivo
Description: A barnacle reattachment assay was performed in the presence and absence of heparin. The barnacle reattachment assay (Rittschof et al., under review) allows for rapid assessment of barnacle adhesive strength. In this assay barnacles are grown on non-toxic silicone substrates. Barnacles are removed from the silicone surface using a hand-held mechanical force gauge. Removed barnacles are then placed on another surface to which they are allowed to reattach for one week. As cement production is continuous throughout a barnacle's life, reattachment is possible and strength of adhesion after one week is nearly identical to initial strength of adhesion (when removed from, and reattached to the same silicone substrate). This assay was utilized to determine if a coating on a surface decreases strength of adhesion by removing a barnacle from silicone and allowing it to reattach to test and control surfaces. Reattachment trials for heparin were conducted by removing a barnacle from a silicone panel and reattaching it to clean glass panels or heparin coated glass panels. […] The reattachment removal force for the barnacles is represented by the gray bars. Barnacles were reattached to glass panels coated with 0 (control), 0.1, 1.0 or 10.0 mg ml^−1 heparin for 7 days. The removal force decreased for all barnacles on heparin treatments. […] This pattern was shown on both heparin coated silicone and heparin coated glass. […] The same group of barnacles was successively reattached to the same treatment for 1, 2, 3 and 4 days (in that order); n=10 barnacles for dH2O and sucrose, n=10 for heparin 1 day, and n=9 for heparin 2, 3 and 4 days. […] Statistical comparisons were not conducted on 2, 3, and 4 day trials as there is a potential for the results to be influenced by previous reattachment trials.

[2] = tested on: serine proteases active in barnacle cement polymerization; test: SDS-PAGE protein signature of unpolymerized barnacle glue with and without heparin; type: biochemical; details: reducing SDS-PAGE, 4-20% acrylamide gel, Coomassie Blue
Description: Techniques were developed and performed to harvest unpolymerized barnacle cement in microliter quantities. This enabled analysis of the proteins in barnacle cement using SDS-PAGE, which separates proteins based on size. SDS-PAGE provides a protein signature. SDS-PAGE was conducted under reducing conditions on a 4-20% acrylamide gradient gel in the presence and absence of heparin to determine any associated changes in protein signature (See FIG. 10). […] A precast, 4-20% acrylamide gel was used and stained with Coomassie Blue. […] The number of protein bands in the 85-115 kDa range is increased and of particular note, the 24 kDa protein and all the smaller peptides have disappeared in the presence of heparin.

## CC(=O)CC(c1ccccc1)c1c(O)c2ccccc2oc1=O (stereo not drawn) [warfarin]
[1]
  inhibition of polymerization of barnacle cement (number and intensity of proteins): effectively inhibit the polymerization of barnacle cement

## O=C(O)CN(CCOCCOCCN(CC(=O)O)CC(=O)O)CC(=O)O [EGTA]
[1]
  inhibition of polymerization of barnacle cement (number and intensity of proteins): effectively inhibit the polymerization of barnacle cement; also recorded: inhibited

## O=C(O)CN(CCN(CC(=O)O)CC(=O)O)CC(=O)O [EDTA]
[1]
  inhibition of polymerization of barnacle cement (number and intensity of proteins): effectively inhibit the polymerization of barnacle cement; also recorded: inhibited

## heparin
barnacles; 1 mg ml^-1 coated T2 silicone, 1 day reattachment, p<0.05
  mean removal force versus sucrose: significant difference from the sucrose results
barnacles; 10 mg ml^-1 heparin coated glass, 7 days, paired samples t-test p=0.017
  reattachment removal force versus initial removal force: highly significant difference from initial removal force
barnacles; glass panels coated with 0.1, 1.0 or 10.0 mg ml^-1 heparin, reattached 7 days
  reattachment removal force: decreased
barnacles; heparin 0.1 to 10 mg ml^-1, heparin coated silicone and heparin coated glass
  force required for removal as concentration increases: stepwise decrease
barnacles; heparin coated surfaces, reattached 1, 2, 3 and 4 days
  removal force over time reattached: no increase in removal force with increasing time reattached
[2]
  bands smaller than 31 kDa (serine proteases and their peptide products): do not appear when heparin is added
  protein signature of barnacle glue: significantly different
[1]
  inhibitory effect on cement polymerization compared with the other anticoagulant compounds tested: most extensive and consistent inhibitory effect
  inhibition of polymerization of barnacle cement (number and intensity of proteins): effectively inhibit the polymerization of barnacle cement
